The source of these data is BindingDB's records for patent WO2022081842 (THE BROAD INSTITUTE, INC., 2022).

Molecules are shown by their SMILES.

Test [1] deals with Histone acetyltransferase KAT6B (Human, UniProt Q8WYB5). The test is described as follows: Kat6b Activity Assay. An excerpt:
Kat6b inhibitory activities of the compounds described in the present invention were quantified using a Fluorescence Resonance Energy Transfer (TR-FRET) assay which measures acetylation of a synthetic, biotinylated Histone-H4-derived peptide by the enzyme.Recombinant human GST-tagged Kat6b protein (431-end, N-terminal GST-tag), purified from Baculovirus- infected insect cells (Sf9), was purchased from SignalChem (#K315-381BG). Histone H4 peptide (amino acids 1-24, […]-VLRD-K(Btn)-amide), which was used as substrate, was synthesized by Biosyntan GmbH, Berlin, Germany. Acetyl Coenzyme A was purchased from Sigma-Aldrich (#A-2056). Kat6b was incubated for 30 mins at 22°C in the presence of different concentrations of test substances (0 μM, and within the range 0.01 - 20 μM) in assay buffer [25 mM Tris/HCl pH 8, 1 mM EGTA, 2.5 mM Glutathion, 0.02% Chicken Albumin, 0.05% Pluronic F127, 25 mM NaCl, 500 nM H4 peptide and 600 nM Acetyl Coenzyme A].The reaction was stopped by addition of Detection Solution (25mM HEPES pH 7.5, 0.1% BSA, 22nM SAXL665 (Cisbio #610SAXLE), 100μM Anacardic Acid (Enzo #ALX-270-381), 1nM Anti-Histone H4 (ACETYL K8) Antibody (ABCAM #AB15823), 0.5 nM Anti-Rabbit IgG Eu (Perkin Elmer #AD0083).The fluorescence emission at 620 nm and 665 nm after excitation at 330-350 nm was measured in a TR-FRET measuring instrument, for instance a Rubystar or a Pherastar (both from BMG Lab Technologies, Offenburg, Germany) or a Viewlux (Perkin-Elmer). The ratio of the emission at 665 nm and at 622 nm was used as indicator of the amount of acetylated peptide.The resulting data (ratio) were normalized, taking 0% inhibition as the mean value of control measurements where all reagents were included. In this case 50 nl DMSO were used instead of compounds. A 100% inhibition corresponded to the mean value of control measurements where all reagents except enzyme were included. IC50 values were determined by regression analysis based on a 4 parameter equation (minimum, maximum, ICM, Hill; Y = Max + (Min - Max) / (1 + (X/ICso) Hill) using the Screener Software (Genedata).

The target in test [2] is T1, Histone acetyltransferase KAT6A [507-778] (Human, UniProt Q92794).
T1 construct: 507-778
T1 sequence (Q92794 whole entry): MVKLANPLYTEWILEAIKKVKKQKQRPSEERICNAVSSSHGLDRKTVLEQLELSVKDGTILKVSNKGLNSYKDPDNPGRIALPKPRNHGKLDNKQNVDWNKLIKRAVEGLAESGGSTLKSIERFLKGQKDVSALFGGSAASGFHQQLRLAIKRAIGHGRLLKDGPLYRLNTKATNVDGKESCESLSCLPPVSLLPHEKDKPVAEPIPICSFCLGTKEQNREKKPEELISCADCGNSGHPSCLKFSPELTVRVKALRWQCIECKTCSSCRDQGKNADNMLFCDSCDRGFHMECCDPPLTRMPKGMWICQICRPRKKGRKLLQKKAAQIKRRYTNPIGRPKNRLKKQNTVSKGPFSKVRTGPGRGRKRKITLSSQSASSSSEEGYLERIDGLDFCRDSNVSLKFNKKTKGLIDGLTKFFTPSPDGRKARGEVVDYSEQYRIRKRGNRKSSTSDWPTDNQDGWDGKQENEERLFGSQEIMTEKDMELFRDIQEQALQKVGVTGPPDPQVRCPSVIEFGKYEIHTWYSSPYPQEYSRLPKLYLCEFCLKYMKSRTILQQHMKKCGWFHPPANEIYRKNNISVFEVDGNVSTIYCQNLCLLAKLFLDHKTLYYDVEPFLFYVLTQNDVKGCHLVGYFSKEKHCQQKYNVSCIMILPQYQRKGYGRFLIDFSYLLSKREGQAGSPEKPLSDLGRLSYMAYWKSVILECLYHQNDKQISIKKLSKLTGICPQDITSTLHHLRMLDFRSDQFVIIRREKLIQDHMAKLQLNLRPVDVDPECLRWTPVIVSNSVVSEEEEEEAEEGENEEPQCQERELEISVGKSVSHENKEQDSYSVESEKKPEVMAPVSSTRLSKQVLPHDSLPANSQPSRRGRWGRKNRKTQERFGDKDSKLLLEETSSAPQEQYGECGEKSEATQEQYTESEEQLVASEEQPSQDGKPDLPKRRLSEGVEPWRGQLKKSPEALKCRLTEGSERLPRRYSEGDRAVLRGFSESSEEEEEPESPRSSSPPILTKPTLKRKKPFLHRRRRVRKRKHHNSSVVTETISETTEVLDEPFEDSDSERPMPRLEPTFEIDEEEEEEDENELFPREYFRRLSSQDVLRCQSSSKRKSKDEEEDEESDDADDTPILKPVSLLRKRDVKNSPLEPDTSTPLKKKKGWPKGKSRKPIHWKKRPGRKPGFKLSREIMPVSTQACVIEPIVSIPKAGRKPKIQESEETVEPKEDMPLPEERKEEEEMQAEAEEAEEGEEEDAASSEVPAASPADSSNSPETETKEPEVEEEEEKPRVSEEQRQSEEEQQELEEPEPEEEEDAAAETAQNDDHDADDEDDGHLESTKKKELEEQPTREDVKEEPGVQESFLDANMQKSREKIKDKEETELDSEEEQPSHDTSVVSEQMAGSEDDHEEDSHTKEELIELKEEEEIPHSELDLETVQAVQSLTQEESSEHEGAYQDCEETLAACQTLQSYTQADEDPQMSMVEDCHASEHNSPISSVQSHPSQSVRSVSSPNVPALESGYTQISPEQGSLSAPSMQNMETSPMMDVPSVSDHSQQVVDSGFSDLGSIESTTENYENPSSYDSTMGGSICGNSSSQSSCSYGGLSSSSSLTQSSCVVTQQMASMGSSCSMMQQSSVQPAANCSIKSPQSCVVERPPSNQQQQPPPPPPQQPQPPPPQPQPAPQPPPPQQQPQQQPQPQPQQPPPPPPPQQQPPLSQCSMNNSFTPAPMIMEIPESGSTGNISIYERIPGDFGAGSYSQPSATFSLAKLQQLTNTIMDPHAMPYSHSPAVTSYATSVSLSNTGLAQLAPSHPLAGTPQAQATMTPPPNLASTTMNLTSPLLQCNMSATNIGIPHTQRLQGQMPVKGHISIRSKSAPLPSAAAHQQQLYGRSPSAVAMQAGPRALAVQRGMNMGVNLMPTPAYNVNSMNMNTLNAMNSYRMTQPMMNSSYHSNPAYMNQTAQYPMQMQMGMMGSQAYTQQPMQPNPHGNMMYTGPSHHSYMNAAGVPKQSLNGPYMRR
The test is described as follows: Kat6a Activity Assay. An excerpt: Kat6a inhibitory activities of the compounds described in the present invention were quantified using a Fluorescence Resonance Energy Transfer (TR-FRET) assay which measures acetylation of a synthetic, biotinylated Histone-H4-derived peptide by the enzyme.Recombinant human His-tagged Kat6a protein (amino acids 194-810), was purified in-house from Baculovirus- infected insect cells (Sf9). Histone H4 peptide (amino acids 1-24, […]-VLRD-K(Btn)-amide), which was used as substrate, was synthesized by Biosyntan GmbH, Berlin, Germany. Acetyl Coenzyme A was purchased from Sigma-Aldrich (#A-2056).Kat6a was incubated for 60 mins at 22°C in the presence of different concentrations of test substances (0 μM, and within the range 0.01 - 20 μM) in assay buffer [25 mM Tris/HCl pH 8, 1 mM EGTA, 2.5 mM Glutathion, 0.02% Chicken Albumin, 0.05% Pluronic F127, 25 mM NaCl, 220 nM H4 peptide and 600 nM Acetyl Coenzyme A].The reaction was stopped by addition of Detection Solution (25mM HEPES pH 7.5, 0.1% BSA, 22nM SAXL665 (Cisbio #610SAXLE), 100μM Anacardic Acid (Enzo #ALX-270-381), 1nM Anti-Histone H4 (ACETYL K8) Antibody (ABCAM #AB15823) and 0.5 nM Anti-Rabbit IgG Eu (Perkin Elmer #AD0083).

Chain of Histone acetyltransferase KAT6B (Q8WYB5 whole entry, the tested form may be a part): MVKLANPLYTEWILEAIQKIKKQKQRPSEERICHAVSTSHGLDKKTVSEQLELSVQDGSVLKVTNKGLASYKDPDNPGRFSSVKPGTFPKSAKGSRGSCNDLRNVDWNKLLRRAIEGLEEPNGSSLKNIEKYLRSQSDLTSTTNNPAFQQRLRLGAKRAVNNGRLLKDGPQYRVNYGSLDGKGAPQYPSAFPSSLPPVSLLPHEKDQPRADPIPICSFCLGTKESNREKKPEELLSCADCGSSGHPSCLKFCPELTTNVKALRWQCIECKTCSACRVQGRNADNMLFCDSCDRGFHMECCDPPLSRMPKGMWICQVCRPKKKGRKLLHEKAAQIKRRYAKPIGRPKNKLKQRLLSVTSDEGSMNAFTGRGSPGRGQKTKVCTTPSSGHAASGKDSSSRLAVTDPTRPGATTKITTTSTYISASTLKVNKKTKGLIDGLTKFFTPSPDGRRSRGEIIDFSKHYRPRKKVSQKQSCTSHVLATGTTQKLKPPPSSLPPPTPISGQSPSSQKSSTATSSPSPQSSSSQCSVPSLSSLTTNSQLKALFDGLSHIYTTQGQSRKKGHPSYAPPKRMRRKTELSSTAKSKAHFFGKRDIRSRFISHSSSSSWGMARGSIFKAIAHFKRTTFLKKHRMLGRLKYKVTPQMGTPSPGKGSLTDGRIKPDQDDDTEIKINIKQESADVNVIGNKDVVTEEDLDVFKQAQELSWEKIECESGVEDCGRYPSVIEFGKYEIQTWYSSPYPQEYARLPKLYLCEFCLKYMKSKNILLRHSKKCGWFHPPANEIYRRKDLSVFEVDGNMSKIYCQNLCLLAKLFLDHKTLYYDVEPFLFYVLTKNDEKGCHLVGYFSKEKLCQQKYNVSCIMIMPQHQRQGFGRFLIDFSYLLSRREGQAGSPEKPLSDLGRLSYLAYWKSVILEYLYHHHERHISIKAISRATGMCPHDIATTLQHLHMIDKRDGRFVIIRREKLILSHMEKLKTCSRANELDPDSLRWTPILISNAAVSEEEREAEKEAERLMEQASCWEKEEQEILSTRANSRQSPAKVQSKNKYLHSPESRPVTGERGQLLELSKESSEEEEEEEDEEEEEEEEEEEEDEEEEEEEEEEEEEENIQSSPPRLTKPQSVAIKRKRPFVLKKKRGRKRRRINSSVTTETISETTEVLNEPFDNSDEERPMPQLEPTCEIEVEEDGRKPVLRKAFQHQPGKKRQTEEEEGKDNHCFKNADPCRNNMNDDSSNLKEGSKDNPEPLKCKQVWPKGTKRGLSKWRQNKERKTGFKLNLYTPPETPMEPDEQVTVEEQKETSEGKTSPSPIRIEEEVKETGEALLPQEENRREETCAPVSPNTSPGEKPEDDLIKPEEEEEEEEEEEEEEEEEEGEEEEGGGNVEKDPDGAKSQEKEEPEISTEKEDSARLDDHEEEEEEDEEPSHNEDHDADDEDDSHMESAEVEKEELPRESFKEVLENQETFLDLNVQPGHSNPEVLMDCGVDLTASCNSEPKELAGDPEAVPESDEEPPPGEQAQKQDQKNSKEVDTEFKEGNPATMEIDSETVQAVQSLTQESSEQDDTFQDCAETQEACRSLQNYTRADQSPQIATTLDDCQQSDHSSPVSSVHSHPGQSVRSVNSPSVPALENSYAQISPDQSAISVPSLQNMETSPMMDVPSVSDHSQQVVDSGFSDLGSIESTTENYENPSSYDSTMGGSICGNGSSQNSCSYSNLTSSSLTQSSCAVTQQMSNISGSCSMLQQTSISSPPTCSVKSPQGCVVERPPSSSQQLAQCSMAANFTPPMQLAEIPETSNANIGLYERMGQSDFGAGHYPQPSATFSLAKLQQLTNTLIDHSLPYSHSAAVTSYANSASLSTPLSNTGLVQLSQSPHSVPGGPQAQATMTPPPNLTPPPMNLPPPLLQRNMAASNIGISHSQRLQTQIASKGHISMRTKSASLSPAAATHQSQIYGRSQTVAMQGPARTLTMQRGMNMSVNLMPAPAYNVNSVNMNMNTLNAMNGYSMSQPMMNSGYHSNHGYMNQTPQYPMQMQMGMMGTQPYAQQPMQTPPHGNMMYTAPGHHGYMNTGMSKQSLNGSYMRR

By IC50 is commonly meant the point on the concentration scale where inhibition reaches its midpoint. Low values mean inhibition by little substance, high ones a need for much substance. `O=C(NS(=O)(=O)c1ccccc1-c1ccccc1)c1cc2ccc(-c3cccnc3)cc2o1` [WO2022081842, Example 4] showed an IC50 in test [1] of over 20000 nM. Still for that read-out and setting: to `O=C(O)c1ccc2cc(C(=O)NS(=O)(=O)c3ccccc3-c3ccccc3)oc2c1` [WO2022081842, Example 5] belongs over 20000 nM. In test [1], `CN(C)C(=O)c1ccc2cc(C(=O)NS(=O)(=O)c3ccccc3-c3ccccc3)oc2c1` [WO2022081842, Example 8] returned an IC50 of over 20000 nM. Regarding `Cc1ccc2cccc(S(=O)(=O)NC(=O)c3cc4c(F)cc(C5CC5)cc4o3)c2n1` [WO2022081842, Example 22], in test [1], the midpoint of inhibition, the IC50, lay at 23 nM. Take `C=C(C)c1ccc2cc(C(=O)NS(=O)(=O)c3ccccc3-c3ccccc3)oc2c1` [WO2022081842, Example 23]: the IC50 in test [2] turned out to be 215 nM; in test [1], 155 nM. Molecule `CCOc1ccccc1S(=O)(=O)NC(=O)c1cc2c(F)cc(C3CC3)cc2o1` [WO2022081842, Example 25] yielded an IC50 in test [1] of 28 nM.

In test [2], `O=C(NS(=O)(=O)c1ccccc1-c1ccccc1)c1cc2c(F)cc(C3CC3)cc2o1` [WO2022081842, Example 38] yielded an IC50 of 17 nM. Take `CCOc1ccccc1S(=O)(=O)NC(=O)c1cc2c(OC(F)F)cc(C3CC3)cc2o1` [WO2022081842, Example 49]: it took 29 nM to reach half-maximal inhibition in test [2] (IC50). Molecule `CCOc1ccccc1S(=O)(=O)NC(=O)c1cc2c(C(F)(F)F)cc(C3CC3)cc2o1` [WO2022081842, Example 51] yielded an IC50 in test [2] of 26 nM. Take `CC(C)c1ccc2cc(C(=O)NS(=O)(=O)c3ccc(Cl)cc3Cl)oc2c1` [WO2022081842, Example 57]: the IC50 was 611 nM in test [2] and 5250 nM in test [1]. For the molecule `CCOc1ccccc1S(=O)(=O)NC(=O)c1cc2c(-n3ccnc3)cc(C3CC3)cc2o1` [WO2022081842, Example 58], half-maximal inhibition in test [2] (IC50) was put at 40 nM. `CC(C)(C)c1ccc(OCc2ccccc2)c(S(=O)(=O)NC(=O)c2cc3c(F)cc(C4CC4)cc3o2)c1` [WO2022081842, Example 60]: in test [1], half-maximal inhibition (IC50) required 45 nM.
